{"source": "PubChem BioAssay AID977613", "about": "(Broad Institute, 2014)", "note": "Active and inactive are the calls of the source. No rule for the calls is given here."}
{"tested_on": "Broad 7084-01 inhibitor HTS, set 2", "test": "inhibitors in Broad screen 7084-01, set 2 (AID 977613);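 also: host cells are infected with parasite promastigotes that become internalized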"}
{"compound": "O=C(C[C@@H]1CC[C@@H]2[C@H](COC[C@H](O)CN2S(=O)(=O)c2ccccc2)O1)N[C@H]1CCN(Cc2ccccc2)C1", "active concentration": "> 10 µM (inactive)"}
{"compound": "COc1ccc(NC(=O)N2CC[C@@H]3[C@H]2c2cc(Br)ccc2N(C)[C@H]3CO)cc1", "active concentration": "> 10 µM (inactive)"}
{"compound": "O=S(=O)(c1ccccc1)N1CCCCN2[C@H](CO)[C@@H](c3ccc(C#CC4CCCC4)cc3)[C@H]2C1", "active concentration": "> 10 µM (inactive)"}
{"compound": "O=C(C1CC1)N1CC2(C1)[C@H](c1ccccc1)[C@@H](CO)N2Cc1nccs1", "active concentration": "> 10 µM (inactive)"}
{"compound": "N#C[C@@H]1[C@H](c2ccccc2C2=CCCCC2)[C@@H](CO)N1C(=O)C1CCOCC1", "active concentration": "> 10 µM (inactive)"}
{"compound": "CC(C)NC(=O)N1CC2(C1)[C@H](c1ccccc1)[C@H](CO)N2Cc1cncnc1", "active concentration": "< 10 µM"}
{"compound": "C/C=C/c1ccc([C@@H]2[C@H](CO)N3CCCCN(S(=O)(=O)c4ccc(OC)cc4)C[C@@H]23)cc1", "active concentration": "> 10 µM (inactive)"}
{"compound": "CN(C)CC(=O)N1CC2(C1)[C@H](c1ccccc1)[C@@H](CO)N2S(C)(=O)=O", "active concentration": "> 10 µM (inactive)"}
{"compound": "C[C@H](NC(=O)[C@@H]1[C@@H](CO)[C@@H]2Cn3c(cccc3=O)[C@H]1N2CCC(F)(F)F)c1ccccc1", "active concentration": "> 10 µM (inactive)"}
{"compound": "COc1ccc2c3c([nH]c2c1)[C@H](CO)N(Cc1ccncc1)CC31CCN(CC2CCOCC2)CC1", "active concentration": "> 10 µM (inactive)"}
{"compound": "COc1ccc(CN2[C@@H]3CN(C(=O)Nc4ccc(F)cc4)c4ccccc4[C@@H]3[C@@H]2CO)cc1", "active concentration": "> 10 µM (inactive)"}
{"compound": "O=C(C1CCOCC1)N1CC(=O)N2[C@@H](CO)[C@H](c3ccc(-c4cccnc4)cc3)[C@@H]2C1", "active concentration": "> 10 µM (inactive)"}
{"compound": "O=C(c1ccccn1)N1C[C@H]2[C@@H](c3ccccc31)[C@@H](CO)N2C(=O)Nc1ccccc1F", "active concentration": "> 10 µM (inactive)"}
{"compound": "CN(C)CC(=O)N1C[C@@H]2[C@H](c3ccccc31)[C@H](CO)N2Cc1cc(F)ccc1F", "active concentration": "> 10 µM (inactive)"}
{"compound": "COc1cccc(-c2ccc3c(c2)[C@H]2[C@H](CCN2S(=O)(=O)c2ccccc2C)[C@@H](CO)N3)c1", "active concentration": "> 10 µM (inactive)"}
{"compound": "N#C[C@@H]1[C@@H](c2ccccc2-c2cccc(F)c2)[C@@H](CO)N1C(=O)CN1CCOCC1", "active concentration": "> 10 µM (inactive)"}
{"compound": "COc1ccccc1-c1ccc([C@@H]2[C@@H](CO)N(CC3CC3)C23CN(S(C)(=O)=O)C3)cc1", "active concentration": "> 10 µM (inactive)"}
{"compound": "O=C(C[C@H]1CC[C@H]2[C@@H](COC[C@@H](O)CN2CCc2ccccc2)O1)NCc1ccc(F)cc1", "active concentration": "> 10 µM (inactive)"}
{"compound": "CN1C[C@H](O)COC[C@@H]2O[C@H](CC(=O)NC3CCCC3)CC[C@H]21", "active concentration": "> 10 µM (inactive)"}
{"compound": "O=C1CN(S(=O)(=O)Cc2ccccc2)C[C@@H]2[C@H](c3ccc(C#Cc4ccccc4)cc3)[C@@H](CO)N12", "active concentration": "> 10 µM (inactive)"}
{"compound": "O=C(NC1CCCC1)N1CCCCN2[C@H](CO)[C@@H](c3ccc(-c4cccnc4)cc3)[C@@H]2C1", "active concentration": "> 10 µM (inactive)"}
{"compound": "O=S(=O)(c1ccc(F)cc1)N1C[C@@H]2[C@H](c3ccccc31)[C@H](CO)N2Cc1ccc2c(c1)OCO2", "active concentration": "> 10 µM (inactive)"}
{"compound": "CN(C)CC(=O)N1[C@H](C#N)[C@@H](c2ccccc2-c2ccccc2F)[C@H]1CO", "active concentration": "> 10 µM (inactive)"}
{"compound": "O=C(C[C@@H]1CC[C@@H]2[C@H](COC[C@H](O)CN2CC2CC2)O1)NCc1ccc(Cl)cc1", "active concentration": "> 10 µM (inactive)"}
{"compound": "CCCNC(=O)N1[C@H](C#N)[C@H](c2ccccc2C2=CCCCC2)[C@@H]1CO", "active concentration": "> 10 µM (inactive)"}
{"compound": "O=C1CNC[C@@H]2[C@@H](c3ccc(C#CC4CCCCC4)cc3)[C@H](CO)N12", "active concentration": "> 10 µM (inactive)"}
{"compound": "CN1c2ccc(C#Cc3cccnc3)cc2[C@H]2[C@H](CCN2S(=O)(=O)c2ccccc2F)[C@@H]1CO", "active concentration": "> 10 µM (inactive)"}
{"compound": "O=C(C[C@@H]1CC[C@H]2[C@@H](COC[C@H](O)CN2Cc2ccc3c(c2)OCO3)O1)Nc1ccccc1", "active concentration": "> 10 µM (inactive)"}
{"compound": "COc1cccc(C(=O)Nc2ccc3c(c2)C(=O)N(C)[C@H]2CC[C@@H](CC(=O)NCCCN4CCOCC4)O[C@@H]2CO3)c1", "active concentration": "> 10 µM (inactive)"}
{"compound": "C/C=C/c1ccc([C@H]2[C@H]3CN(S(=O)(=O)c4ccc(OC)cc4)CCCCN3[C@H]2CO)cc1", "active concentration": "> 10 µM (inactive)"}
{"compound": "CCCNC(=O)N1CC(=O)N2[C@H](C1)[C@@H](c1ccc(-c3ccc(F)cc3)cc1)[C@@H]2CO", "active concentration": "> 10 µM (inactive)"}
{"compound": "CCC(=O)N1[C@H](CO)[C@@H](c2ccc(/C=C/c3ccccc3)cc2)C12CN(S(C)(=O)=O)C2", "active concentration": "> 10 µM (inactive)"}
{"compound": "O=C([C@H]1[C@H](CO)[C@H]2Cn3c(ccc(-c4ccccc4F)c3=O)[C@@H]1N2C(=O)C1CCC1)N1CCCCC1", "active concentration": "> 10 µM (inactive)"}
{"compound": "Cc1noc(C)c1NC(=O)N1C[C@@H](O)COC[C@H]2O[C@H](CC(=O)NCC3CCCCC3)CC[C@@H]21", "active concentration": "> 10 µM (inactive)"}
{"compound": "CC(=O)N1[C@H](C(=O)NCc2ccccc2Cl)[C@@H](CO)[C@@H]2Cn3c(ccc(-c4cncnc4)c3=O)[C@@H]21", "active concentration": "> 10 µM (inactive)"}
{"compound": "COc1ccc(C#Cc2ccc([C@@H]3[C@@H](CO)N4C(=O)CN(C(=O)c5ccc(F)cc5)C[C@@H]34)cc2)cc1", "active concentration": "> 10 µM (inactive)"}
{"compound": "CCCC(=O)N1CC2(C1)CN(C(=O)c1ccc(F)cc1)[C@H](CO)c1[nH]c3cc(OC)ccc3c12", "active concentration": "> 10 µM (inactive)"}
{"compound": "COc1ccc2c3c(n(C)c2c1)[C@@H](CO)N(S(=O)(=O)c1ccc(C)cc1)CC31CN(C(=O)c2ccccn2)C1", "active concentration": "> 10 µM (inactive)"}
{"compound": "CN1C(=O)c2cc(NC(=O)Nc3ccccc3Cl)ccc2OC[C@H]2O[C@H](CC(=O)NCCCN3CCOCC3)CC[C@@H]21", "active concentration": "> 10 µM (inactive)"}
{"compound": "COc1ccc(NC(=O)N2CC(=O)N3[C@H](C2)[C@@H](c2ccc(Br)cc2)[C@@H]3CO)cc1", "active concentration": "> 10 µM (inactive)"}
{"compound": "O=C(C[C@@H]1CC[C@H]2[C@@H](COC[C@H](O)CN2CCC(F)(F)F)O1)NCC1CC1", "active concentration": "> 10 µM (inactive)"}
{"compound": "CCc1cnc(N2[C@H](C#N)[C@@H](c3ccccc3C3=CCCCC3)[C@@H]2CO)s1", "active concentration": "> 10 µM (inactive)"}
{"compound": "O=C([C@H]1[C@H](CO)[C@H]2Cn3c(cccc3=O)[C@@H]1N2Cc1cocn1)N1CCCCC1", "active concentration": "> 10 µM (inactive)"}
{"compound": "O=C(C[C@H]1CC[C@@H]2[C@H](COC[C@@H](O)CN2CC2CC2)O1)NCc1ccc(Cl)cc1", "active concentration": "> 10 µM (inactive)"}
{"compound": "O=C(C[C@H]1CC[C@H]2[C@@H](COC[C@H](O)CN2C(=O)Cc2ccccc2)O1)NC1CCCC1", "active concentration": "> 10 µM (inactive)"}
{"compound": "Cc1noc(C)c1NC(=O)N1C[C@@H](O)COC[C@@H]2O[C@H](CC(=O)NCC3CCCCC3)CC[C@H]21", "active concentration": "> 10 µM (inactive)"}
{"compound": "N#Cc1cccc(-c2ccc3c(c2)[C@H]2[C@H](CCN2S(=O)(=O)c2ccc(F)cc2)[C@@H](CO)N3)c1", "active concentration": "> 10 µM (inactive)"}
{"compound": "COc1ccc2c3c(n(C)c2c1)[C@H](CO)N(C(=O)Nc1ccc(F)cc1)CC31CCN(S(=O)(=O)c2cccc(C)c2)CC1", "active concentration": "> 10 µM (inactive)"}
{"compound": "O=C(C[C@@H]1CC[C@@H]2[C@H](COC[C@@H](O)CN2S(=O)(=O)c2ccccc2)O1)Nc1ccccc1", "active concentration": "> 10 µM (inactive)"}
{"compound": "O=S(=O)(c1ccccc1)N1CC[C@@H]2[C@H]1c1cc(Br)ccc1N[C@@H]2CO", "active concentration": "> 10 µM (inactive)"}
{"compound": "OC[C@H]1[C@@H](c2ccc(-c3ccccc3F)cc2)[C@H]2CN(Cc3cncnc3)CCCCN21", "active concentration": "> 10 µM (inactive)"}
{"compound": "CCCNC(=O)N1CC(=O)N2[C@H](CO)[C@H](c3ccc(-c4ccc(F)cc4)cc3)[C@H]2C1", "active concentration": "> 10 µM (inactive)"}
{"compound": "CCC(=O)N1[C@@H]2Cn3c(ccc(-c4ccc(F)cc4)c3=O)[C@H]1[C@@H](C(=O)OC)[C@@H]2CO", "active concentration": "> 10 µM (inactive)"}
{"compound": "O=C(Nc1ccccc1)N1CC(=O)N2[C@H](CO)[C@@H](c3ccc(C#CC4CCCCC4)cc3)[C@@H]2C1", "active concentration": "> 10 µM (inactive)"}
{"compound": "COc1ccc(NC(=O)N2CC(=O)N3[C@@H](CO)[C@H](c4ccc(Br)cc4)[C@@H]3C2)cc1", "active concentration": "> 10 µM (inactive)"}
{"compound": "COCC(=O)N1[C@@H]2CNc3ccccc3[C@@H]2[C@@H]1CO", "active concentration": "> 10 µM (inactive)"}
{"compound": "OC[C@H]1[C@@H](c2ccc(C#CC3(O)CCCC3)cc2)[C@H]2CN(Cc3cncnc3)CCCCN21", "active concentration": "> 10 µM (inactive)"}
{"compound": "CCS(=O)(=O)Nc1ccc2c(c1)C(=O)N(C)[C@H]1CC[C@@H](CC(=O)NCCOC)O[C@H]1CO2", "active concentration": "> 10 µM (inactive)"}
{"compound": "N#Cc1ccc(-c2ccc3c(c2)[C@H]2[C@H](CCN2C(=O)C2CCCCC2)[C@H](CO)N3)cc1", "active concentration": "> 10 µM (inactive)"}
{"compound": "N#C[C@@H]1[C@H](c2ccccc2C2=CCCCC2)[C@H](CO)N1C(=O)C1CCOCC1", "active concentration": "> 10 µM (inactive)"}
{"compound": "CC(C)CC#Cc1ccc([C@@H]2[C@H]3CN(C(=O)c4ccccn4)CC(=O)N3[C@H]2CO)cc1", "active concentration": "> 10 µM (inactive)"}
{"compound": "C/C=C/c1ccc([C@@H]2[C@H](CO)N(CC3CC3)C23CN(C(=O)c2ccc4c(c2)OCO4)C3)cc1", "active concentration": "> 10 µM (inactive)"}
{"compound": "CC(C)C#Cc1ccc([C@@H]2[C@@H](CO)N3C(=O)CN(C(=O)Cc4ccccc4)C[C@H]23)cc1", "active concentration": "> 10 µM (inactive)"}
{"compound": "CN1C(=O)c2cc(NC(=O)c3cnccn3)ccc2OC[C@H]2O[C@H](CC(=O)NCC3CCCCC3)CC[C@@H]21", "active concentration": "> 10 µM (inactive)"}
{"compound": "COc1ccc2c3c([nH]c2c1)[C@@H](CO)N(S(=O)(=O)c1cn(C)cn1)CC31CCN(CC2CCCCC2)CC1", "active concentration": "> 10 µM (inactive)"}
{"compound": "COc1ccccc1S(=O)(=O)N1CC[C@@H]2[C@H]1c1cc(-c3ccc(C#N)cc3)ccc1N[C@@H]2CO", "active concentration": "> 10 µM (inactive)"}
{"compound": "CN1c2ccc(Br)cc2[C@H]2[C@H](CCN2C(=O)Nc2ccccc2F)[C@H]1CO", "active concentration": "> 10 µM (inactive)"}
{"compound": "COc1ccc2c3c([nH]c2c1)[C@H](CO)N(C(=O)C1CCOCC1)CC31CN(C(=O)NC(C)C)C1", "active concentration": "> 10 µM (inactive)"}
{"compound": "COc1ccccc1C(=O)Nc1ccc2c(c1)C(=O)N(C)[C@H]1CC[C@@H](CC(=O)NCCc3ccncc3)O[C@H]1CO2", "active concentration": "> 10 µM (inactive)"}
{"compound": "CC=Cc1ccc2n(c1=O)C[C@@H]1[C@@H](CO)[C@H](C(=O)N3CCc4ccccc4C3)N(C(=O)C3CC3)[C@H]21", "note": "(mixture of isomers)", "active concentration": "> 10 µM (inactive)"}
